Experimental data taken from ChEMBL document CHEMBL3526058, “Investigating the enteroenteric recirculation of apixaban, a factor Xa inhibitor: administration of activated charcoal to bile duct-cannulated rats and dogs receiving an intravenous dose and use of drug transporter knockout rats” (Drug Metab Dispos, 2013).

Experiments:
[1] = tested on: Canis familiaris; assay: Intestinal clearance in bile duct-cannulated beagle dog at 1 mg/kg, iv administered as 5 mins infusion; format: ADME, organism-based, Canis lupus familiaris; set-up: dose 1 mg/kg, route intravenous; details: in vivo
[2] = Drug recovery in feces of bile duct-cannulated beagle dog at 1 mg/kg, iv administered as 5 mins infusion measured up to 72 hrs; format: ADME, organism-based, Canis lupus familiaris; set-up: dose 1 mg/kg, route intravenous; details: read-out: Drug recovery
[3] = tested on: Rattus norvegicus; assay: Intestinal clearance in wild-type 30 mins activated charcoal pre-treated bile duct-cannulated Sprague-Dawley rat at 2 mg/kg, iv followed by activated charcoal administration 5 to 180 mins post compound dosing relative to total clearance; format: ADME, organism-based; set-up: dose 2 mg/kg, route intravenous; details: in vivo
[4] = Half life in BCRP-knockout Sprague-Dawley rat at 2 mg/kg, iv; format: ADME, organism-based; set-up: dose 2 mg/kg, route intravenous; details: in vivo
[5] = Cmax in bile duct-cannulated beagle dog at 1 mg/kg, iv administered as 5 mins infusion; format: ADME, organism-based, Canis lupus familiaris; set-up: dose 1 mg/kg, route intravenous; details: in vivo
[6] = Clearance in P-gp-knockout Sprague-Dawley rat at 2 mg/kg, iv; format: ADME, organism-based; set-up: dose 2 mg/kg, route intravenous; details: in vivo
[7] = Cmax in BCRP-knockout Sprague-Dawley rat at 2 mg/kg, iv; format: ADME, organism-based; set-up: dose 2 mg/kg, route intravenous; details: in vivo
[8] = tested on: Rattus norvegicus; assay: Intestinal clearance in P-gp-knockout Sprague-Dawley rat at 2 mg/kg, iv relative to total clearance; format: ADME, organism-based; set-up: dose 2 mg/kg, route intravenous; details: in vivo
[9] = Cmax in bile duct-cannulated beagle dog at 1 mg/kg, iv administered as 5 mins infusion followed by activated charcoal administration 10 to 420 mins post compound dosing; format: ADME, organism-based, Canis lupus familiaris; set-up: dose 1 mg/kg, route intravenous; details: in vivo
[10] = tested on: Rattus norvegicus; assay: Intestinal clearance in wild-type bile duct-cannulated Sprague-Dawley rat at 2 mg/kg, iv administered 0.125 hr post GF-120918 treatment; format: ADME, organism-based; set-up: dose 2 mg/kg, route intravenous; details: in vivo
[11] = Mean residence time in P-gp-knockout Sprague-Dawley rat at 2 mg/kg, iv; format: ADME, organism-based; set-up: dose 2 mg/kg, route intravenous; details: in vivo
[12] = Plasma protein binding in Sprague-Dawley rat; format: ADME, cell-free; details: read-out: PPB (converted)
[13] = Drug recovery in bile of bile duct-cannulated beagle dog at 1 mg/kg, iv administered as 5 mins infusion followed by activated charcoal administration 10 to 420 mins post compound measured up to 72 hrs; format: ADME, organism-based, Canis lupus familiaris; set-up: dose 1 mg/kg, route intravenous; details: read-out: Drug recovery
[14] = tested on: Rattus norvegicus; assay: Intestinal clearance in wild-type bile duct-cannulated Sprague-Dawley rat at 2 mg/kg, iv; format: ADME, organism-based; set-up: dose 2 mg/kg, route intravenous; details: in vivo
[15] = tested on: Rattus norvegicus; assay: Renal clearance in BCRP-knockout Sprague-Dawley rat at 2 mg/kg, iv relative to total clearance; format: ADME, organism-based, Kidney; set-up: dose 2 mg/kg, route intravenous; details: in vivo
[16] = tested on: Rattus norvegicus; assay: Intestinal clearance in wild-type bile duct-cannulated Sprague-Dawley rat at 2 mg/kg, iv relative to total clearance; format: ADME, organism-based; set-up: dose 2 mg/kg, route intravenous; details: in vivo
[17] = Cmax in P-gp-knockout Sprague-Dawley rat at 2 mg/kg, iv; format: ADME, organism-based; set-up: dose 2 mg/kg, route intravenous; details: in vivo
[18] = Clearance in wild-type bile duct-cannulated Sprague-Dawley rat at 2 mg/kg, iv administered 0.125 hr post GF-120918 treatment; format: ADME, organism-based; set-up: dose 2 mg/kg, route intravenous; details: in vivo, with GF-120918
[19] = Clearance in wild-type 30 mins activated charcoal pre-treated bile duct-cannulated Sprague-Dawley rat at 2 mg/kg, iv followed by activated charcoal administration 5 to 180 mins post compound dosing; format: ADME, organism-based; set-up: dose 2 mg/kg, route intravenous; details: in vivo
[20] = tested on: Rattus norvegicus; assay: Renal clearance in P-gp-knockout Sprague-Dawley rat at 2 mg/kg, iv relative to total clearance; format: ADME, organism-based, Kidney; set-up: dose 2 mg/kg, route intravenous; details: in vivo
[21] = Renal clearance in bile duct-cannulated beagle dog at 1 mg/kg, iv administered as 5 mins infusion followed by activated charcoal administration 10 to 420 mins post compound dosing; format: ADME, organism-based, Canis lupus familiaris, Kidney; set-up: dose 1 mg/kg, route intravenous; details: in vivo
[22] = Drug recovery in feces of bile duct-cannulated P-gp-knockout Sprague-Dawley rat at 2 mg/kg, iv measured up to 24 hrs; format: ADME, organism-based; set-up: dose 2 mg/kg, route intravenous; details: read-out: Drug recovery
[23] = Volume of distribution at steady state in bile duct-cannulated beagle dog at 1 mg/kg, iv administered as 5 mins infusion followed by activated charcoal administration 10 to 420 mins post compound dosing; format: ADME, organism-based, Canis lupus familiaris; set-up: dose 1 mg/kg, route intravenous; details: in vivo, read-out: Vdss
[24] = tested on: Rattus norvegicus; assay: Intestinal clearance in BCRP-knockout Sprague-Dawley rat at 2 mg/kg, iv relative to total clearance; format: ADME, organism-based; set-up: dose 2 mg/kg, route intravenous; details: in vivo
[25] = Volume of distribution at steady state in P-gp-knockout Sprague-Dawley rat at 2 mg/kg, iv; format: ADME, organism-based; set-up: dose 2 mg/kg, route intravenous; details: in vivo, read-out: Vdss
[26] = Drug recovery in urine of bile duct-cannulated beagle dog at 1 mg/kg, iv administered as 5 mins infusion measured up to 72 hrs; format: ADME, organism-based, Canis lupus familiaris; set-up: dose 1 mg/kg, route intravenous; details: read-out: Drug recovery
[27] = Renal clearance in wild-type bile duct-cannulated Sprague-Dawley rat at 2 mg/kg, iv administered 0.125 hr post GF-120918 treatment; format: ADME, organism-based, Kidney; set-up: dose 2 mg/kg, route intravenous; details: in vivo, with GF-120918
[28] = tested on: Rattus norvegicus; assay: Renal clearance in wild-type bile duct-cannulated Sprague-Dawley rat at 2 mg/kg, iv administered 0.125 hr post GF-120918 treatment relative to total clearance; format: ADME, organism-based, Kidney; set-up: dose 2 mg/kg, route intravenous; details: in vivo
[29] = Mean residence time in BCRP-knockout Sprague-Dawley rat at 2 mg/kg, iv; format: ADME, organism-based; set-up: dose 2 mg/kg, route intravenous; details: in vivo
[30] = Drug recovery in urine of bile duct-cannulated Sprague-Dawley rat at 2 mg/kg, iv administered 1 hr post GF-120918 treatment measured up to 48 hrs; format: ADME, organism-based; set-up: dose 2 mg/kg, route intravenous; details: with GF-120918, given 1 hr before the compound, read-out: Drug recovery
[31] = AUC (0 to infinity) in wild-type bile duct-cannulated Sprague-Dawley rat at 2 mg/kg, iv administered 0.125 hr post GF-120918 treatment; format: ADME, organism-based; set-up: time infinity, dose 2 mg/kg, route intravenous; details: in vivo, with GF-120918
[32] = Cmax in wild-type 30 mins activated charcoal pre-treated bile duct-cannulated Sprague-Dawley rat at 2 mg/kg, iv followed by activated charcoal administration 5 to 180 mins post compound dosing; format: ADME, organism-based; set-up: dose 2 mg/kg, route intravenous; details: in vivo
[33] = Mean residence time in bile duct-cannulated beagle dog at 1 mg/kg, iv administered as 5 mins infusion; format: ADME, organism-based, Canis lupus familiaris; set-up: dose 1 mg/kg, route intravenous; details: in vivo
[34] = Drug recovery in feces of beagle dog at 5 mg/kg, po measured up to 72 hrs; format: ADME, organism-based, Canis lupus familiaris; set-up: dose 5 mg/kg, route oral; details: read-out: Drug recovery
[35] = Drug recovery in bile of bile duct-cannulated Sprague-Dawley rat at 30 mg/kg, po measured up to 48 hrs; format: ADME, organism-based; set-up: dose 30 mg/kg, route oral; details: read-out: Drug recovery
[36] = tested on: Canis familiaris; assay: Metabolism and biliary clearance in bile duct-cannulated beagle dog at 1 mg/kg, iv administered as 5 mins infusion followed by activated charcoal administration 10 to 420 mins post compound dosing; format: ADME, organism-based, Canis lupus familiaris; set-up: dose 1 mg/kg, route intravenous; details: in vivo
[37] = tested on: Rattus norvegicus; assay: Intestinal clearance in wild-type 30 mins activated charcoal pre-treated bile duct-cannulated Sprague-Dawley rat at 2 mg/kg, iv followed by activated charcoal administration 5 to 180 mins post compound dosing; format: ADME, organism-based; set-up: dose 2 mg/kg, route intravenous; details: in vivo
[38] = Half life in wild-type 30 mins activated charcoal pre-treated bile duct-cannulated Sprague-Dawley rat at 2 mg/kg, iv followed by activated charcoal administration 5 to 180 mins post compound dosing; format: ADME, organism-based; set-up: dose 2 mg/kg, route intravenous; details: in vivo
[39] = AUC (0 to infinity) in wild-type 30 mins activated charcoal pre-treated bile duct-cannulated Sprague-Dawley rat at 2 mg/kg, iv followed by activated charcoal administration 5 to 180 mins post compound dosing; format: ADME, organism-based; set-up: time infinity, dose 2 mg/kg, route intravenous; details: in vivo
[40] = Drug recovery in urine of 30 mins activated charcoal pre-treated bile duct-cannulated Sprague-Dawley rat at 2 mg/kg, iv followed by activated charcoal administration 5 to 180 mins post compound dosing measured up to 48 hrs; format: ADME, organism-based; set-up: dose 2 mg/kg, route intravenous; details: read-out: Drug recovery
[41] = tested on: Rattus norvegicus; assay: Metabolism and biliary clearance in BCRP-knockout Sprague-Dawley rat at 2 mg/kg, iv relative to total clearance; format: ADME, organism-based, Bile; set-up: dose 2 mg/kg, route intravenous; details: in vivo
[42] = Drug recovery in bile of bile duct-cannulated P-gp-knockout Sprague-Dawley rat at 2 mg/kg, iv measured up to 24 hrs; format: ADME, organism-based; set-up: dose 2 mg/kg, route intravenous; details: read-out: Drug recovery
[43] = Drug recovery in urine of bile duct-cannulated BCRP-knockout Sprague-Dawley rat at 2 mg/kg, iv measured up to 24 hrs; format: ADME, organism-based; set-up: dose 2 mg/kg, route intravenous; details: read-out: Drug recovery

Question: With `COc1ccc(-n2nc(C(N)=O)c3c2[14C](=O)N(c2ccc(N4CCCCC4=O)cc2)CC3)cc1` as the molecule, how does the CL [1] read?
Answer: 0.287 mL/min/kg

Question: And the dose excreted [2]?
Answer: 42.7%

Question: And the CL [3]?
Answer: 28%

Question: And the half-life [4]?
Answer: 2.1 h

Question: And the Cmax [5]?
Answer: 4430 ng/mL

Question: What about the clearance [6] of the same molecule?
Answer: 13.3 mL/min/kg

Question: What about the Cmax [7] of the same molecule?
Answer: 2370 ng/mL

Question: What about the CL [8] of the same molecule?
Answer: 24%

Question: What about the Cmax [9] of the same molecule?
Answer: 4330 ng/mL

Question: What about the CL [10] of the same molecule?
Answer: 1.7 mL/min/kg

Question: And the MRT [11]?
Answer: 0.8 h

Question: What about the fraction unbound [12] of the same molecule?
Answer: 0.04

Question: And the dose excreted [13]?
Answer: 13.1%

Question: What about the CL [14] of the same molecule?
Answer: 5 mL/min/kg

Question: What about the CL [15] of the same molecule?
Answer: 33%

Question: And the CL [16]?
Answer: 21%

Question: What about the Cmax [17] of the same molecule?
Answer: 2160 ng/mL

Question: And the clearance [18]?
Answer: 11.7 mL/min/kg

Question: And the clearance [19]?
Answer: 33.3 mL/min/kg

Question: What about the CL [20] of the same molecule?
Answer: 43%

Question: And the CL renal [21]?
Answer: 0.122 mL/min/kg

Question: What about the dose excreted at 24 h [22] of the same molecule?
Answer: 24.9%

Question: What about the Vd [23] of the same molecule?
Answer: 0.2 L/kg

Question: What about the CL [24] of the same molecule?
Answer: 37%

Question: What about the Vd [25] of the same molecule?
Answer: 0.7 L/kg

Question: What about the dose excreted [26] of the same molecule?
Answer: 13.5%

Question: What about the CL renal at 0.125 h [27] of the same molecule?
Answer: 5.83 mL/min/kg

Question: And the CL [28]?
Answer: 50%

Question: And the MRT [29]?
Answer: 1.4 h

Question: And the dose excreted [30]?
Answer: 50.6%

Question: What about the AUC(0-inf) [31] of the same molecule?
Answer: 2840 ng·h/mL

Question: And the Cmax [32]?
Answer: 1640 ng/mL

Question: And the MRT [33]?
Answer: 2.6 h

Question: And the dose excreted at 72 h [34]?
Answer: 73.7%

Question: What about the dose excreted at 48 h [35] of the same molecule?
Answer: 2.6%

Question: What about the CL [36] of the same molecule?
Answer: 0.192 mL/min/kg

Question: And the CL [37]?
Answer: 9.17 mL/min/kg

Question: And the half-life [38]?
Answer: 0.8 h

Question: And the AUC(0-inf) [39]?
Answer: 1020 ng·h/mL

Question: What about the dose excreted [40] of the same molecule?
Answer: 40.7%

Question: What about the CL [41] of the same molecule?
Answer: 30%

Question: And the dose excreted at 24 h [42]?
Answer: 14.1%

Question: And the dose excreted at 24 h [43]?
Answer: 35.5%
